Assay results from the supplement of paper PMC10307832.

Columns and labels:
Assay in all cases: relative viability (nuclei count vs DMSO), 5 days (fraction); higher = more cells survive
Linsitinib + Alpelisib = compound: C[C@]1(O)C[C@@H](c2nc(-c3ccc4ccc(-c5ccccc5)nc4c3)c3c(N)nccn32)C1 [Linsitinib] + Cc1nc(NC(=O)N2CCC[C@H]2C(N)=O)sc1-c1ccnc(C(C)(C)C(F)(F)F)c1 [Alpelisib] (partner 2 µM)
Procedure, shortened: (§1)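 A single step with final 0.05% Triton X-100, 1% formaldehyde and 1 ug/ml Hoechst fixed the cells and stained nuclei 5 days after treatment. Lung cancer cell lines in 1536-well plates had been treated by pin tool the day after seeding with one drug alone or a fixed anchor-drug dose plus five library-drug doses (not always all listed) in √10 steps, and nuclei were counted on 4× images. Relative viability is the ratio of nuclei in treated wells to nuclei in vehicle wells, taken as the median of duplicate plates.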

Ispinesib + OSI-027 = compound: Cc1ccc(C(=O)N(CCCN)[C@@H](c2nc3cc(Cl)ccc3c(=O)n2Cc2ccccc2)C(C)C)cc1 [Ispinesib] + COc1cccc2cc(-c3nc([C@H]4CC[C@H](C(=O)O)CC4)n4ncnc(N)c34)[nH]c12 [OSI-027] (partner 0.5 µM)
Procedure, shortened: as §1

Linsitinib + Phenformin = compound: C[C@]1(O)C[C@@H](c2nc(-c3ccc4ccc(-c5ccccc5)nc4c3)c3c(N)nccn32)C1 [Linsitinib] + N=C(N)NC(=N)NCCc1ccccc1 [Phenformin] (partner 250 µM)
Procedure, shortened: as §1

Ispinesib + Pictilisib = compound: Cc1ccc(C(=O)N(CCCN)[C@@H](c2nc3cc(Cl)ccc3c(=O)n2Cc2ccccc2)C(C)C)cc1 [Ispinesib] + CS(=O)(=O)N1CCN(Cc2cc3nc(-c4cccc5[nH]ncc45)nc(N4CCOCC4)c3s2)CC1 [Pictilisib] (partner 1 µM)
Procedure, shortened: as §1

| Cell Line | relative viability (Linsitinib + Alpelisib; first compound 0.01 µM) | relative viability (Linsitinib + Alpelisib; first compound 0.03162 µM) | relative viability (Linsitinib + Alpelisib; first compound 0.1 µM) | relative viability (Linsitinib + Alpelisib; first compound 0.3162 µM) | relative viability (Linsitinib + Alpelisib; first compound 1 µM) | relative viability (Ispinesib + OSI-027; first compound 0.001 µM) | relative viability (Ispinesib + OSI-027; first compound 0.003162 µM) | relative viability (Ispinesib + OSI-027; first compound 0.01 µM) | relative viability (Ispinesib + OSI-027; first compound 0.03162 µM) | relative viability (Ispinesib + OSI-027; first compound 0.1 µM) | relative viability (Linsitinib + Phenformin; first compound 0.01 µM) | relative viability (Linsitinib + Phenformin; first compound 0.03162 µM) | relative viability (Linsitinib + Phenformin; first compound 0.1 µM) | relative viability (Linsitinib + Phenformin; first compound 0.3162 µM) | relative viability (Linsitinib + Phenformin; first compound 1 µM) | relative viability (Ispinesib + Pictilisib; first compound 0.001 µM) | relative viability (Ispinesib + Pictilisib; first compound 0.003162 µM) | relative viability (Ispinesib + Pictilisib; first compound 0.01 µM) | relative viability (Ispinesib + Pictilisib; first compound 0.03162 µM) | relative viability (Ispinesib + Pictilisib; first compound 0.1 µM) |
| --- | --- | --- | --- | --- | --- | --- | --- | --- | --- | --- | --- | --- | --- | --- | --- | --- | --- | --- | --- | --- |
| NCI-H2087 | 1.06 | 1.2 | 1.02 | 0.853 | 0.815 | 0.551 | 0.643 | 0.535 | 0.206 | 0.102 | 0.498 | 0.54 | 0.417 | 0.222 | 0.365 | 0.94 | 0.881 | 1.13 | 0.313 | 0.187 |
| CAL-12T | 1.18 | 1.18 | 1.24 | 0.99 | 1.07 | 0.737 | 0.584 | 0.701 | 0.166 | 0.177 | 0.573 | 0.573 | 0.619 | 0.528 | 0.558 | 0.413 | 0.545 | 0.523 | 0.295 | 0.172 |
| NCI-H596 | 0.508 | 0.532 | 0.406 | 0.418 | 0.443 | 0.818 | 0.674 | 0.951 | 0.625 | 0.29 | 0.721 | 0.638 | 0.678 | 0.774 | 0.833 | 0.416 | 0.377 | 0.372 | 0.361 | 0.251 |
| PC-14 | 0.799 | 0.89 | 0.968 | 0.792 | 0.837 | 0.983 | 0.791 | 0.256 | 0.0319 | 0.0859 | 0.623 | 0.523 | 0.58 | 0.533 | 0.395 | 0.796 | 0.668 | 0.78 | 0.232 | 0.169 |
| NCI-H1915 | 1.08 | 1.15 | 1.14 | 0.913 | 0.878 | 0.679 | 0.514 | 0.751 | 0.252 | 0.212 | 0.371 | 0.389 | 0.247 | 0.339 | 0.373 | 0.969 | 1.07 | 0.977 | 0.532 | 0.232 |
| NCI-H647 | 1.14 | 1.19 | 0.914 | – | 0.951 | 0.76 | 0.696 | 0.766 | 0.235 | 0.107 | 0.524 | 0.464 | 0.537 | – | 0.438 | 0.402 | 0.504 | 0.449 | 0.104 | 0.0557 |
| NCI-H322M | 0.711 | 0.774 | 0.921 | 0.703 | 0.673 | 0.621 | 0.529 | 0.549 | 0.448 | 0.331 | 0.832 | 0.765 | 0.814 | 0.545 | 0.552 | 0.527 | 0.489 | 0.54 | 0.44 | 0.397 |
| NCI-H2170 | 0.865 | 0.777 | 0.698 | 0.745 | 0.68 | 0.743 | 0.644 | 0.75 | 0.354 | 0.191 | 0.432 | 0.379 | 0.364 | 0.24 | 0.348 | 0.317 | 0.312 | 0.295 | 0.254 | 0.288 |
